Values after ≈ are worked out from the molar mass of the structure shown.
How the values were obtained:
[1] = system: αvβ3 integrin positive melanoma cells M21; experiment: Cell attachment on vitronectin coated surface; format: cell-based; conditions: 2 ng/μl, 1 h
Procedure: FIG. 8: Cell attachment on vitronectin coated surface. 2 ng/μl of free DI17E6 or the different nanoparticulate formulations were incubated together with the αvβ3 integrin positive melanoma cells M21 on vitronectin coated ELISA plates (concentrations are calculated referred to DI17E6 or equivalent NP amounts). After 1 h of incubation non-adherent cells were removed. Remaining attached cells were stained with CyQUANT GR and counted against untreated control as described in the manufacturer's instructions manual. (Internal control of each experiment n=10, one representative experiment out of 3 independent experiments is shown.)
αvβ3 integrin positive melanoma cells M21 were grown on vitronectin (MoBiTec, Göttingen, Germany) coated ELISA plates (Nunc, Wiesbaden, Germany). Therefore, ELISA 96-well plates were coated with 1 μg/ml vitronectin for 1 h at 37° C. Plates were blocked with 1% heat inactivated BSA (PAA, Cölbe, Germany) and incubated with either 2 ng/μl of free DI17E6 or the different nanoparticulate formulations (referred to free mAb) together with the cells in cell adhesion medium (RPMI 1640 with 2 mM L-glutamine supplemented with 1% BSA). […] Remaining attached cells were stained with CyQUANT GR (Invitrogen, Karlsruhe) and counted against untreated control in a microtiter ELISA reader as described in the manufacturer instructions manual.

[2] = system: αvβ3 integrin positive melanoma cells M21; experiment: Cell detachment from vitronectin coated surface; format: cell-based; conditions: 4 ng/μl, 4 h at 37° C.
Procedure: FIG. 9: Cell detachment from vitronectin coated surface. For cell detachment assay, 96-well ELISA plates were coated with vitronectin and cells were allowed to attach and spread for 1 h. Then, 4 ng/μl of free DI17E6 or the different unloaded or doxorubicin nanoparticulate formulations were added and the plates were incubated for additional 4 h at 37° C. to induce detachment (concentrations are calculated referred to DI17E6 or equivalent NP amounts). Detached cells were removed and remaining attached cells were stained with CyQUANT GR and counted against untreated control as described in the manufacturer's instructions manual. (Internal control of each experiment n=10, one representative experiment out of 9 independent experiments is shown.)
For cell detachment assays, 96-well ELISA plates were coated with vitronectin as described above. After blocking, cells were allowed to attach and spread for 1 h in cell adhesion medium. Then, 4 ng/μl or 10 ng/μl of either free DI17E6 or the different nanoparticulate formulations (referred to free mAb) were added and the plates were incubated for additional 4 h at 37° C. to induce detachment. Subsequently, plates were washed and processed as for cell adhesion assay. Specific inhibition of attachment or induction of detachment were determined relative to vitronectin-coated surfaces blocked with BSA.

[3] = system: αvβ3-positive M21 melanoma cells; experiment: MTT cell viability assay; conditions: for IC-50 M21: MTT, reduce cell viability by 50%, M21 cells
Procedure: (§5) Cell viability was assessed using the 3-(4,5-dimethylthiazol-2-yl)-2,5-diphenyltetrazolium bromide (MTT) dye reduction assay [27] modified as described before [28].

αv-negative M21L cells = experiment: MTT cell viability assay; conditions: for IC-50 M21L: MTT, reduce cell viability by 50%, M21L cells
Procedure: as §5

[4] = biological target: alpha-v beta-3 integrin on M21 melanoma cells (UniProt P06756); experiment: cell-based or functional assay
Sequence of alpha-v beta-3 integrin on M21 melanoma cells (P06756 31-1048, chain 1 of 2): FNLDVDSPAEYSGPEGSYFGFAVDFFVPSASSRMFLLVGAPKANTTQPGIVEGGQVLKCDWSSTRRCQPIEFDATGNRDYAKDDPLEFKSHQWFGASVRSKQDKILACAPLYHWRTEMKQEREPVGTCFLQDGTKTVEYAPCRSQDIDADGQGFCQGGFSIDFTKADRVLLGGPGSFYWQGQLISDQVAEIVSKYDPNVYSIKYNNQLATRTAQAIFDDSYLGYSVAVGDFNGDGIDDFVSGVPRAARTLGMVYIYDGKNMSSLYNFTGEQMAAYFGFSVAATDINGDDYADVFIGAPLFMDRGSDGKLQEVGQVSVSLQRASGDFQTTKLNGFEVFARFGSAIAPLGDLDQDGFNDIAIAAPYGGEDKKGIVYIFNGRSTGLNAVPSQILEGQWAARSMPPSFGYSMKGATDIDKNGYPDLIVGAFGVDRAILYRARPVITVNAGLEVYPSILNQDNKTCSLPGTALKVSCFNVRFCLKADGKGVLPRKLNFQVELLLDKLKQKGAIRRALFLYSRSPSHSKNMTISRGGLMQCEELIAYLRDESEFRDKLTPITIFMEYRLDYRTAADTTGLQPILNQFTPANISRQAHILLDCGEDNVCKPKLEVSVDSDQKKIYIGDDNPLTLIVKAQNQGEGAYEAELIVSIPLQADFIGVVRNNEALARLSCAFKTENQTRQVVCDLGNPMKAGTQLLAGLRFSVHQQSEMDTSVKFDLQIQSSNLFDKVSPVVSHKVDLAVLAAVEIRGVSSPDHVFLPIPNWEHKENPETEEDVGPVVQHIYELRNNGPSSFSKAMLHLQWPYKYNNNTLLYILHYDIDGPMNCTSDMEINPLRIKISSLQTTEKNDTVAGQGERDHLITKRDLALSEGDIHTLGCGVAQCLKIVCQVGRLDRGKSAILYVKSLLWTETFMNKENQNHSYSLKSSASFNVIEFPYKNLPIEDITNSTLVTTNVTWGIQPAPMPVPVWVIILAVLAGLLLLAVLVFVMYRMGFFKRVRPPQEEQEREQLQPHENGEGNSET
Sequence of alpha-v beta-3 integrin on M21 melanoma cells (P05106 27-788, chain 2 of 2, further chain): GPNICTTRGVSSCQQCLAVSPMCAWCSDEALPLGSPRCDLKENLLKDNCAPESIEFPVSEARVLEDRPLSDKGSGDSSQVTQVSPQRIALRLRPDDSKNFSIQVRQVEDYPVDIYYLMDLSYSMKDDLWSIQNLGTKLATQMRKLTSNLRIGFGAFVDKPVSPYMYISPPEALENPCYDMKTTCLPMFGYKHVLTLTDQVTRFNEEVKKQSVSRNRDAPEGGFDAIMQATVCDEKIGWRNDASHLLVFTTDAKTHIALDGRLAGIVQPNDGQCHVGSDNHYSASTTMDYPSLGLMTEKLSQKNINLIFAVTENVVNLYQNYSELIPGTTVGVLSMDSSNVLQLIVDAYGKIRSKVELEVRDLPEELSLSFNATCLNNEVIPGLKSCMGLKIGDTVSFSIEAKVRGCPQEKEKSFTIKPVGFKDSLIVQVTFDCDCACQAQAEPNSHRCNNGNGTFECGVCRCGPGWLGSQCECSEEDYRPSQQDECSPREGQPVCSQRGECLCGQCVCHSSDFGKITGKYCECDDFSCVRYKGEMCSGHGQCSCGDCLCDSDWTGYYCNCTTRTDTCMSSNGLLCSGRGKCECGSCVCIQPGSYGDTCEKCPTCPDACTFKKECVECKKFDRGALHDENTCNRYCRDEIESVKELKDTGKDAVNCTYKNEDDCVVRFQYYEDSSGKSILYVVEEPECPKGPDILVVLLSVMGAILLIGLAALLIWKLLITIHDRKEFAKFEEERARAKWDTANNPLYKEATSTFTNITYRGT

M21 cells = experiment: Cellular uptake and intracellular distribution, confocal laser scanning microscopy; format: cell-based; conditions: 10 ng/μl, 4 h at 37° C., CLSM
Procedure: Cellular uptake and intracellular distribution: The cellular uptake and intracellular distribution of these nanoparticulate formulations are shown by confocal laser scanning microscopy (CLSM). αvβ3 integrin-positive M21 melanoma cells are incubated with NP-Dox-DI17E6, with NP-Dox-IgG, or free Doxorubicin (FIG. 5). […] The overlay of the different fluorescence channels (FIG. 6B-D) verifies the intracellular uptake of NP-Dox-DI17E6 (FIG. 6A).
FIG. 5: Cellular uptake and intracellular distribution of nanoparticles studied by confocal laser scanning microscopy (CLSM). M21 cells were cultured on glass slides and treated with 10 ng/μl of the different nanoparticle formulations (referred to DI17E6 concentration or equivalent amount of control nanoparticles) for 4 h at 37° C. The green autofluorescence of the nanoparticles was used for detection and the red autofluorescence of doxorubicin. The cell membranes were stained with Concanavalin A AlexaFluor 350 (blue). Pictures were taken within inner sections of the cells. […]
Cellular uptake and intracellular distribution of the nanoparticles were studied by confocal laser scanning microscopy. […] (concentrations are calculated referred to DI17E6 or equivalent NP amounts as described in 2.5). […] Nanoparticles were detected at 488/520 nm. Doxorubicin was detected by red fluorescence at 488/590 nm.

[5] = system: αvβ3 positive melanoma cells M21 on vitronectin; experiment: Kinetic of cell detachment, transmitted light time lapse microscopy; format: cell-based; conditions: total incubation time 1-2 d
Procedure: A parallel detachment kinetic study of the different nanoparticulate formulations or free doxorubicin confirms the cell detachment assay. In this study detachment is observed by transmitted light time lapse microscopy over a period of 1-2 d. Pictures were done every 7 minutes. The detachment time of the cells is measured.
For the determination of cell detachment kinetics, cells were seeded in a vitronectin coated multiwell chamber and incubated with the different nanoparticulate formulations or free doxorubicin in a humidified, CO2-aerated climate chamber at 37° C. Detachment was observed by transmitted light time lapse microscopy over a period of 1-2 d. Pictures were done every 7 minutes. The detachment of the cells was analyzed by manual evaluation of the data.

[6] = system: αv-defective melanoma cells M21L; experiment: Cellular binding of nanoparticulate formulations, flow cytometry (FACS); format: cell-based; conditions: 2 ng/μl, 4 h at 37° C.
Procedure: (§1) Cellular binding: αvβ3 integrin-positive melanoma cells M21 and αv-negative melanoma cells M21L are incubated with DI17E6-coupled nanoparticles (NP-DI17E6) or nanoparticles coupled to an unspecific control mAb IgG (NP-IgG). […] Both nanoparticle preparations show low binding to M21L cells (FIG. 4D).
(§2) FIG. 4: Cellular binding of unloaded and doxorubicin loaded nanoparticulate formulations. αvβ3 integrin positive melanoma cells M21 (A and C) and αv-defective melanoma cells M21L (B and D) were treated with 2 ng/μl of the different unloaded (A and B) or doxorubicin loaded (C and D) nanoparticulate formulations for 4 h at 37° C. (concentrations are calculated referred to DI17E6 or equivalent NP amounts). Flow cytometry (FACS) analysis was performed to quantify their cellular binding. The data is shown as histogram of the FL1-H-channel (autofluorescence of the nanoparticles). Green: NP-DI17E6 and NP-Dox-DI17E6 respectively, red: NP-IgG and NP-Dox-IgG respectively, blue: untreated control. […]
(§3) M21 or M21L cells were cultured in 24-well plates (Greiner, Frickenhausen, Germany) and treated with the different nanoparticle formulations for 4 h at 37° C. […] Control nanoparticles without DI17E6 modification were used in equivalent nanoparticle quantities. […] Nanoparticles could be detected at 488/520 nm.

[7] = system: αvβ3 integrin positive melanoma cells M21; experiment: as above; format: cell-based; conditions: 2 ng/μl, 4 h at 37° C.
Procedure: as §1, §2, §3

[8] = Particle diameter and polydispersity by photon correlation spectroscopy; format: physicochemical; conditions: mean ± SD; n = 3; 100% crosslinking
Procedure: (§4) Nanoparticles were analyzed with regard to particle diameter and polydispersity by photon correlation spectroscopy (PCS) using a Malvern Zetasizer 3000HSA (Malvern Instruments Ltd., Malvern, UK). The zetapotential was measured with the same instrument by Laser Doppler microelectrophoresis. Prior to both measurements the samples were diluted with filtered (0.22 μm) purified water. Particle content was determined by microgravimetry. For this purpose 50.0 μl of the nanoparticle suspension was pipetted into an aluminium weighing dish and dried for 2 h at 80° C. After 30 min of storage in an exsiccator the samples were weighed on a micro balance (Sartorius, Germany).

[9] = Zetapotential by Laser Doppler microelectrophoresis; format: physicochemical; conditions: mean ± SD; n = 3; 100% crosslinking
Procedure: as §4

[10] = Particle content by microgravimetry; format: physicochemical; conditions: mean ± SD; n = 3; 100% crosslinking
Procedure: as §4

[11] = Antibody bound to nanoparticle surface (SEC of supernatant); format: physicochemical
Procedure: For the thiolation step of the antibodies, DI17E6 or IgG were dissolved in phosphate buffer pH 8.0 at a concentration of 1.0 mg/ml. For the introduction of thiol groups DI17E6 or IgG, respectively, were incubated with a 50 fold molar excess of 2-iminothiolane solution (c=1.14 mg/ml; 40.2 μl) for 2 h as previously described by Steinhauser et al. (2006). The antibodies were purified by size exclusion chromatography (SEC, D-Salt™ Dextran Desalting column). The resulting solutions contained thiolated antibody (DI17E6 or IgG, respectively) at a concentration of about 500 μg/ml. For the coupling reaction 1.0 ml of the sulfhydryl-reactive nanoparticle suspension was incubated with 1.0 ml of the thiolated DI17E6 or IgG, respectively, to achieve a covalent linkage between antibody and the nanoparticle system. For the preparation of samples with adsorptively attached antibody, 1.0 ml of the mPEG5000-SPA modified nanoparticles were incubated with 1.0 ml of thiolated DI17E6 or IgG, respectively. […] To determine unbound antibody the resulting supernatants were collected and analyzed by size exclusion chromatography (SEC) as described above. The amount of antibody bound to the nanoparticle surface was calculated as difference between the amount of antibody obtained after thiolation and purification and the amount of antibody determined in the supernatant obtained after the conjugation step.

[12] = Doxorubicin loading (HPLC of non-entrapped drug); format: physicochemical; conditions: mean ± SD, n = 3
Procedure: (5) Preparation of doxorubicin-loaded nanoparticles 160 mg HSA were dissolved in 4 ml purified water and the solution was filtered through a 0.22 μm cellulose acetate membrane filter (Schleicher & Schuell, Dassel, Germany). An aliquot (500 μl) of this solution was added to 200 μl of a 0.5% (w/v) aqueous stock solution of doxorubicin. To this mixture, 300 μl of purified water were added. In order to adsorb doxorubicin to human serum albumin in solution, the mixture was incubated under stirring (550 rpm) for 2 h at room temperature. For the preparation of nanoparticles by desolvation, 3 ml ethanol (96%, v/v) were added continuously (1 ml/min) with a tubing pump (Ismatec IPN, Glattbrugg, Switzerland). After protein desolvation, an aliquot of 11.75 μl 8% glutaraldehyde solution was added to induce particle crosslinking (corresponding to 100% stoichiometric protein crosslinking). […] The nanoparticle content was determined by gravimetry. […] The content of entrapped doxorubicin was calculated from the difference between total doxorubicin and unbound drug. For the quantification of doxorubicin, a Merck Hitachi D7000 HPLC system equipped with a LiChroCART® 250-4 LiChrospher®-100 RP-18 column (Merck, Darmstadt, Germany) was used. […] Doxorubicin was quantified by UV (250 nm) and fluorescence detection (excitation 560 nm, emission 650 nm).

With “free DI17E6: deimmunized version of monoclonal mouse antibody 17E6, directed against αv integrins (SEQ ID No. 1 and 2)” the “Inhibition of cell attachment to vitronectin coated surfaces” value [1] was “inhibits the attachment of the M21 cells to vitronectin coated surfaces”, the “Cell detachment from vitronectin coated surfaces” value [2] was “cell detachment of αvβ3 positive melanoma cells M21 from vitronectin coated surfaces is also possible” and the “IC-50 M21” value [3] was over 100 ng/mL. The “IC-50 M21L” value (αv-negative M21L cells) was over 100 ng/mL.

In the case of “NP-Dox-DI17E6 (doxorubicin-loaded HSA nanoparticles with DI17E6 covalently coupled on the surface)”, the IC-50 of MTT cell viability assay on M21 cells (referred to doxorubicin) [4] is reported as 8 ng/mL.

For COc1cccc2c1C(=O)c1c(O)c3c(c(O)c1C2=O)C[C@@](O)(C(=O)CO)C[C@@H]3O[C@H]1C[C@H](N)[C@H](O)[C@H](C)O1 [free doxorubicin, doxorubicin, reference compound], the “Cellular uptake and intracellular distribution” value (M21 cells) was “Red doxorubicin fluorescence can be detected”, the “Cell death [h after incubation]” value [5] was 17 h and the IC50 ([3]; Homo sapiens, M21, read-out: IC-50 M21) was 0.0575 ± 0.0037 µg/mL (≈ 0.106 µM). The IC50 (αv-negative M21L cells; read-out: IC-50 M21L) was 0.0707 ± 0.0008 µg/mL (≈ 0.13 µM).

With NP-Dox-DI17E6 the “Cellular binding to M21L cells” value [6] was “low binding”, the “Cellular binding to M21 cells” value [7] was “high binding” and the “Cellular uptake and intracellular distribution” value (M21 cells) was “reaches the inner part of the cells”. The “Cell detachment from vitronectin coated surfaces” value [2] was “same detachment efficiency”, the Particle diameter [8] was 404.9 ± 27.0 nm and the Polydispersity [8] was 0.040 ± 0.045. The Zetapotential [9] was −40.3 ± 3.1 mV, the Particle content [10] was 14.4 ± 1.2 mg/mL and the “Covalent linkage of antibody to the particle surface” value ([11]; covalent linkage) was 11-20 μg antibody/mg nanoparticle. The Antibody binding efficiency ([11]; mean ± SD, n = 3, antibody per mg nanoparticle) was 15.84 ± 4.07 µg/mg, the Drug loading [12] was 56.7 ± 2.9 µg/mg and the “IC-50 M21” value [3] was 8.0 ± 0.2 ng/mL. The “IC-50 M21L” value (αv-negative M21L cells) was over 100 ng/mL.

From patent US20120263739A1, “ANTI INTEGRIN ANTIBODIES LINKED TO NANOPARTICLES LOADED WITH CHEMOTHERAPEUTIC AGENTS” (MERCK PATENT GMBH, priority 2009, published 2012)
